In patent publication US9655887B2, “Pharmaceutical composition and the use thereof, and application regime of said pharmaceutical composition for on-demand contraception” (BAYER PHARMA AKTIENGESELLSCHAFT, priority 2013, dated 2017):

Each molecule was assayed against EP2 subtype of the human PGE2 receptor (hEP2 receptor) (Homo sapiens, UniProt P43116) (assay: cAMP antagonism test, human prostaglandin E2 (subtype EP2) receptor signal).
Assay type: cell-based
Excerpt: 1. Detection of Antagonism to the Human Prostaglandin E2 (Subtype EP2) Receptor Signal
The binding of PGE2 to the EP2 subtype of the human PGE2 receptor induces the activation of membrane-located adenylate cyclases and leads to the formation of cAMP. In the presence of the phosphodiesterase inhibitor IBMX, the cAMP accumulated owing to this stimulation and released by cell lysis is used in a competitive detection method. In this test, the cAMP present in the lysate competes with a fluorescence-labelled cAMP (cAMP-d2) for binding to an Eu cryptate-labelled anti-cAMP antibody.
In the absence of cellular cAMP, a maximal signal is produced, which is attributable to the binding of this cAMP-d2 molecule to the antibody. After excitation of the […] at 337 nm, there is a fluorescence resonance energy transfer (FRET) to the Eu cryptate molecules of the anti-cAMP antibody (labelled therewith), followed by a long-lasting emission signal at 665 nm (and at […]). Both signals are measured in a suitable measurement instrument with a time delay, i.e. after decay of the background fluorescence. Any increase in the low FRET signal caused by prostaglandin E2 administration (measured as well ratio change=emission665nm/emission620nm*10000) indicates the action of antagonists.
1.2.1. Test for Antagonism (Data Per Well of a 384-Well Plate):
To a test plate with the substance solutions already added (0.05 μl; 100% DMSO, concentration range from 0.8 nM-16.5 nM) were added 4 μl of a cAMP-d2/cell suspension (625000 cells/ml). After a 20-minute preincubation at room temperature (RT), 2 μl of a 3×PGE2 solution (1.5 nM, in PBS-IBMX) were added and incubated in the presence of the agonist for a further 60 mins at RT (volume: […]). Next the reaction was stopped by addition of 2 μl of lysis buffer and incubated for a further 20 mins at RT before the actual measurement (volume: ˜8 μl).

Chain of EP2 subtype of the human PGE2 receptor (hEP2 receptor) (P43116 whole entry): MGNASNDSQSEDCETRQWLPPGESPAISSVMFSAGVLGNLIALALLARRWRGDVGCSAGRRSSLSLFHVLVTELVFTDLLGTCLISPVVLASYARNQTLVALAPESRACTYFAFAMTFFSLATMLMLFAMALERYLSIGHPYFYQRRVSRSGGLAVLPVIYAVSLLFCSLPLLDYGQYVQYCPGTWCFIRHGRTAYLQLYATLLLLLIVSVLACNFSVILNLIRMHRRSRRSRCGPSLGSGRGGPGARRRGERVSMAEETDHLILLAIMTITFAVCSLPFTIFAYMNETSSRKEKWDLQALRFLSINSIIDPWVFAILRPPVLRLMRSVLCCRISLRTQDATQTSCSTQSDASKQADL

Row | SMILES | IC50
1 | Cc1c(C(=O)NCCOC(C)(C)C)ccc2nn(CC3CCN(C(=O)c4ccc(Oc5ccc(F)cc5)cc4)CC3)cc12 [Example E82, N-(2-tert-butoxyethyl)-2-({1-[4-(4-fluorophenoxy)benzoyl]piperidin-4-yl}methyl)-4-methyl-2H-indazole-5-carboxamide] | > 50 nM
2 | Cc1c(C(=O)NCCOC(C)(C)C)ccc2nn(CC3CCN(C(=O)c4ccc(Cl)cc4)CC3)cc12 [Example E81, N-(2-tert-butoxyethyl)-2-{[1-(4-chlorobenzoyl)piperidin-4-yl]methyl}-4-methyl-2H-indazole-5-carboxamide] | > 50 nM
3 | Cc1c(C(=O)NCCOC(C)(C)C)ccc2nn(CC3CCN(C(=O)c4ccc(Oc5ccc(C(F)(F)F)cc5)cc4)CC3)cc12 [Example E84, N-(2-tert-butoxyethyl)-4-methyl-2-[(1-{4-[4-(trifluoromethyl)phenoxy]benzoyl}-piperidin-4-yl)methyl]-2H-indazole-5-carboxamide] | > 50 nM
4 | COCCNC(=O)c1ccc2nn(CC3CCN(C(=O)c4ccc(-c5ccc(F)cc5)c(C)c4)CC3)cc2c1C [Example E203, 2-({1-[(4′-fluoro-2-methylbiphenyl-4-yl)carbonyl]piperidin-4-yl}methyl)-N-(2-methoxyethyl)-4-methyl-2H-indazole-5-carboxamide] | > 50 nM
5 | COCCNC(=O)c1ccc2nn(CC3CCN(C(=O)c4ccc(-c5ccc(Cl)cn5)cc4)CC3)cc2c1C [Example E181, 2-({1-[4-(5-chloropyridin-2-yl)benzoyl]piperidin-4-yl}methyl)-N-(2-methoxyethyl)-4-methyl-2H-indazole-5-carboxamide] | > 50 nM
6 | Cc1ccc(C(=O)N2CC(Cn3cc4c(C)c(C(=O)NCCOCC5CC5)ccc4n3)C2)cc1 [Example E104, N-[2-(cyclopropylmethoxy)ethyl]-4-methyl-2-{[1-(4-methylbenzoyl)azetidin-3-yl]-methyl}-2H-indazole-5-carboxamide] | > 50 nM
7 | Cc1ccc(C(=O)N2CCC(Cn3cc4c(C)c(C(=O)NCCOCC5CC5)ccc4n3)CC2)cc1 [Example E60, N-[2-(cyclopropylmethoxy)ethyl]-4-methyl-2-{[1-(4-methylbenzoyl)piperidin-4-yl]-methyl}-2H-indazole-5-carboxamide] | > 50 nM
8 | COCCNC(=O)c1ccc2nn(CC3CCN(C(=O)c4ccc(Br)cc4)CC3)cc2c1C [Example E52, 2-{[1-(4-bromobenzoyl)piperidin-4-yl]methyl}-N-(2-methoxyethyl)-4-methyl-2H-indazole-5-carboxamide] | > 50 nM
9 | Cc1c(C(=O)NCCOCC2CC2)ccc2nn(CC3CCN(C(=O)c4ccc(C(F)(F)F)cc4)CC3)cc12 [Example E62, N-[2-(cyclopropylmethoxy)ethyl]-4-methyl-2-({1-[4-(trifluoromethyl)benzoyl]piperidin-4-yl}methyl)-2H-indazole-5-carboxamide] | > 50 nM
10 | Cc1c(C(=O)NCC(F)(F)F)ccc2nn(CC3CCN(C(=O)c4ccc(Oc5ccc(C(F)(F)F)cn5)cc4)CC3)cc12 [Example E127, 4-methyl-N-(2,2,2-trifluoroethyl)-2-{[1-(4-{[5-(trifluoromethyl)pyridin-2-yl]oxy}-benzoyl)piperidin-4-yl]methyl}-2H-indazole-5-carboxamide] | > 50 nM
11 | COCCNC(=O)c1ccc2nn(CC3CN(C(=O)c4ccc(Oc5ccc(C(F)(F)F)cn5)cc4)C3)cc2c1C [Example E117, N-(2-methoxyethyl)-4-methyl-2-{[1-(4-{[5-(trifluoromethyl)pyridin-2-yl]oxy}benzoyl)-azetidin-3-yl]methyl}-2H-indazole-5-carboxamide] | > 50 nM
12 | Cc1c(C(=O)NCCOC(C)C)ccc2nn(CC3CCN(C(=O)c4ccc(Oc5ccc(F)cc5)cc4)CC3)cc12 [Example E73, 2-({1-[4-(4-fluorophenoxy)benzoyl]piperidin-4-yl}methyl)-N-(2-isopropoxyethyl)-4-methyl-2H-indazole-5-carboxamide] | > 50 nM
13 | Cc1c(C(=O)NCCOC(C)C)ccc2nn(CC3CCN(C(=O)c4ccc(-c5ccc(F)cc5)cc4)CC3)cc12 [Example E75, 2-({1-[(4′-fluorobiphenyl-4-yl)carbonyl]piperidin-4-yl}methyl)-N-(2-isopropoxyethyl)-4-methyl-2H-indazole-5-carboxamide] | > 50 nM
14 | Cc1c(C(=O)NCCOCC(F)(F)F)ccc2nn(CC3CN(C(=O)c4ccc(Cl)cc4)C3)cc12 [Example E112, 2-{[1-(4-chlorobenzoyl)azetidin-3-yl]methyl}-4-methyl-N-[2-(2,2,2-trifluoroethoxy)-ethyl]-2H-indazole-5-carboxamide] | > 50 nM

Second part, the molecule after the results:

Row | IC50 | SMILES
15 | > 50 nM | COCCNC(=O)c1ccc2nn(CC3CCN(C(=O)c4ccc(-c5cncc(Cl)c5)cc4)CC3)cc2c1C [Example E198, 2-({1-[4-(5-chloropyridin-3-yl)benzoyl]piperidin-4-yl}methyl)-N-(2-methoxyethyl)-4-methyl-2H-indazole-5-carboxamide]
16 | > 50 nM | COCCNC(=O)c1ccc2nn(CC3CCN(C(=O)c4ccc(-c5ccc(Cl)cc5OC)cc4)CC3)cc2c1C [Example E194, 2-({1-[(4′-chloro-2′-methoxybiphenyl-4-yl)carbonyl]piperidin-4-yl}methyl)-N-(2-methoxyethyl)-4-methyl-2H-indazole-5-carboxamide]
17 | > 50 nM | COCCNC(=O)c1ccc2nn(CC3CCN(C(=O)c4ccc(C(F)(F)F)cc4)CC3)cc2c1C [Example E22, N-(2-methoxyethyl)-4-methyl-2-({1-[4-(trifluoromethyl)benzoyl]piperidin-4-yl}-methyl)-2H-indazole-5-carboxamide]
18 | > 50 nM | Cc1ccc(C(=O)N2CCC(Cn3cc4c(C)c(C(=O)NCCOCC(F)(F)F)ccc4n3)CC2)cc1 [Example E66, 4-methyl-2-{[1-(4-methylbenzoyl)piperidin-4-yl]methyl}-N-[2-(2,2,2-trifluoroethoxy)-ethyl]-2H-indazole-5-carboxamide]
19 | > 50 nM | COCCNC(=O)c1ccc2nn(CC3CN(C(=O)c4ccc(Oc5ccc(Cl)cc5)cc4)C3)cc2c1C [Example E116, 2-({1-[4-(4-chlorophenoxy)benzoyl]azetidin-3-yl}methyl)-N-(2-methoxyethyl)-4-methyl-2H-indazole-5-carboxamide]
20 | > 50 nM | COCCNC(=O)c1ccc2nn(CC3CCN(C(=O)c4ccc(-c5ccccc5C)cc4)CC3)cc2c1C [Example E48, N-(2-methoxyethyl)-4-methyl-2-({1-[(2′-methylbiphenyl-4-yl)carbonyl]piperidin-4-yl}-methyl)-2H-indazole-5-carboxamide]
21 | > 50 nM | COCCNC(=O)c1ccc2nn(CC3CCN(C(=O)c4ccc(-c5ccncc5)c(C)c4)CC3)cc2c1C [Example E206, N-(2-methoxyethyl)-4-methyl-2-({1-[3-methyl-4-(4-pyridyl)benzoyl]piperidin-4-yl}-methyl)-2H-indazole-5-carboxamide]
22 | > 50 nM | COCCNC(=O)c1ccc2nn(CC3CCN(C(=O)c4ccc(-c5ccc(C(F)(F)F)nc5)cc4)CC3)cc2c1C [Example E187, N-(2-methoxyethyl)-4-methyl-2-[(1-{4-[6-(trifluoromethyl)pyridin-3-yl]benzoyl}-piperidin-4-yl)methyl]-2H-indazole-5-carboxamide]
23 | > 50 nM | Cc1c(C(=O)NCC(F)(F)F)ccc2nn(CC3CCN(C(=O)c4ccc(SC(F)(F)F)cc4)CC3)cc12 [Example E125, 4-methyl-N-(2,2,2-trifluoroethyl)-2-[(1-{4-[(trifluoromethyl)sulphanyl]benzoyl}-piperidin-4-yl)methyl]-2H-indazole-5-carboxamide]
24 | > 50 nM | COCCNC(=O)c1ccc2nn(CC3CCN(C(=O)c4ccc(N5CCOCC5)cc4F)CC3)cc2c1C [Example E51, 2-({1-[2-fluoro-4-[morpholin-4-yl)benzoyl]piperidin-4-yl}methyl)-N-(2-methoxyethyl)-4-methyl-2H-indazole-5-carboxamide]
25 | > 50 nM | COCCNC(=O)c1ccc2nn(CC3CCN(C(=O)c4ccc(OC(F)F)cc4)CC3)cc2c1C [Example E178, 2-({1-[4-(difluoromethoxy)benzoyl]piperidin-4-yl}methyl)-N-(2-methoxyethyl)-4-methyl-2H-indazole-5-carboxamide]
26 | > 50 nM | COCCNC(=O)c1ccc2nn(CC3CCN(C(=O)c4ccc(Oc5ccc(F)cc5)cc4)CC3)cc2c1C [Example E3, 2-({1-[4-(4-fluorophenoxy)benzoyl]piperidin-4-yl}methyl)-N-(2-methoxyethyl)-4-methyl-2H-indazole-5-carboxamide]
27 | > 50 nM | Cc1c(C(=O)NCC(F)(F)F)ccc2nn(CC3CN(C(=O)c4ccc(Oc5ccc(C(F)(F)F)cc5)cc4)C3)cc12 [Example E114, 4-methyl-N-(2,2,2-trifluoroethyl)-2-[(1-{4-[4-(trifluoromethyl)phenoxy]benzoyl}-azetidin-3-yl)methyl]-2H-indazole-5-carboxamide]
